According to patent US12404252B2, “Salt of 2-amino-2-(2-(1-decyl-1H-1,2,3-triazol-4-yl)ethyl)propane-1,3-diol, and pharmaceutical composition containing same” (NEXTGEN BIOSCIENCE CO., LTD, priority 2021, dated 2025):
Where two headings read alike, the source gives them in different places.

What was measured:
[1] = pH stability and salinity stability, 40±2° C.; assay type: physicochemical
Experimental: pH and salinity stability tests for the hemifumirate salt of Compound 1 were performed at an initial target concentration of 2 mg/mL. The pH and salinity stability conditions used to evaluate the hemifumirate salt of Compound 1 and the evaluation results are as follows.
• 40±2° C.: Conditions in which the vial was capped and upright • Storage container for stability: 2-mL screw neck clear glass vial (manufactured by La-Pha-Pack) • Target concentration: ˜ 2 mg/mL (adding the sample to 1 mL of medium, followed by vortexing for 30 seconds) • 500 μL of the test mixture was dissolved in 500 μL of a diluent (1:1 methanol/water), and the prepared solution was analyzed by HPLC without filtration.

[2] = pH stability and salinity stability, 40±2° C.; assay type: physicochemical; remark: listed apart in the source
[3] = Photostability test; assay type: physicochemical
Experimental: For a photostability test, 10 mg of Compound 1a was exposed to 1.2 million lux hours of ultraviolet and visible light at room temperature. For an oxidation stability test, 0.2 mL of 30% H2O2 and 1 mg of Compound 1a were placed in a 2-mL vial and stored at 25° C. for up to 24 hours. The photostability and oxidation stability conditions used to evaluate the fumarate salt of Compound 1 and the evaluation results are as follows.

[4] = Oxidation stability test (30% H2O2); assay type: physicochemical
[5] = Standard stock solution stability, 60° C./75±5% RH; assay type: physicochemical; conditions: 2 weeks under 60° C./75±5% RH
Experimental: The stability of the crystalline compound was under 60° C./75±5% RH conditions, and the purity thereof was examined by HPLC method. The experimental conditions used in the stability test for Compound 1a and the test results are as follows.
60° C./75±5% RH: Conditions in which the vial was open and upright.
(§1) A required amount (˜1 mg) of solid material was dissolved in 1 mL of a diluent (1:1 methanol/water), and the prepared solution was analyzed by HPLC.

[6] = Standard stock solution stability, 40° C./75±5% RH; assay type: physicochemical; conditions: 40° C./75% RH
Experimental: The stability of the crystalline compound was examined at 40° C./75±5% RH. Physical stability was examined through comparative XRPD analysis before and after the test, and chemical stability was examined by HPLC method. The experimental conditions used in the stability test for Compound 1a and the test results are as follows.
40° C./75±5% RH: Conditions in which the vial was open and upright.
as §1

[7] = Solubility in aqueous media (HPLC); assay type: physicochemical; conditions: same conditions as Compound 1a, some samples
Experimental: The solubility of Compound 1a prepared in Example 1 was evaluated in several different media, including pH 1.2 hydrochloric acid buffer, pH 3.0 citrate buffer, pH 4.7 acetate buffer, pH 6.8 phosphate buffer, simulated gastric fluid, fasted-state simulated intestinal fluid, fed-state simulated intestinal fluid, and water. About 2.17 mg of sample (based on the free base of Compound 1) for each medium was taken into a 2-mL transparent glass vial and […] of medium was added (constituents of the salt were considered Compound 1: counterion=1:0.5; target concentration: 2 mg/mL). The mixture was stirred using a magnetic stirrer at 250 RPM for 24 hours at 25° C. Next, the pH and appearance of the mixture were recorded and the mixture was filtered through a MultiScreen® HTS-HV 96-well plate (manufactured by Merck; 0.45-μm hydrophilic, low-protein-binding Durapore® membrane). Solubility was determined using HPLC, and a calibration curve was created by injecting a known concentration of Compound 1a. The filtered sample was injected (diluted appropriately as necessary) and the concentration of Compound 1a (mg/mL) in the filtrate was calculated from the calibration curve (taking salt coefficient into account). The analysis results are as follows.

[8] = Corrosion of a sample stored together with the substance at 60° C.; assay type: physicochemical; conditions: stored together with the sample for 2 weeks at 60° C.
Experimental: FIG. 12 depicts photograph showing the results of checking the degree of corrosion of a sample after storing each of the free base of Compound 1, Compound 1a, and a hydrochloride salt of Compound 1 together with the sample under 60° C. conditions for 2 weeks.

[9] = Hygroscopicity test by DVS; assay type: physicochemical; conditions: for DVS remark (adsorption at 90% RH): water adsorption at 90% RH
Excerpt: Dynamic vapor sorption (DVS) is a method that has been used for a long time to investigate the interactions between active pharmaceutical ingredients (APIs), and pharmaceutical preparations and water. Here, to analyze the water absorption rate of a sample at a specific temperature, measurements are made by exposing the sample to the desired relative humidity using a DVS water sorption analyzer (hygroscopicity analyzer) until the change in weight of the sample stabilizes.

[10] = molecular target: hERG potassium ion channel (Homo sapiens, UniProt Q12809)
[11] = pKa of the free base; assay type: physicochemical; conditions: natural conditions
Experimental: The method for preparing the salt of the present invention and the process of selecting the salt thereby are as follows. […] Specifically, acids that were appropriate for matching the pKa of the free base of Compound 1 described above were calculated by computer, and these acids were mainly identified as acids having a pKa of about 2 to 5.

[12] = system: dextran sulfate sodium (DSS)-induced colitis model; test: DSS-induced colitis mouse model, disease activity index; assay type: in vivo; conditions: DSS mice
Experimental: The effectiveness of Compound 1a against inflammatory bowel disease was evaluated using the dextran sulfate sodium (DSS)-induced colitis model. In the mouse model, inflammatory bowel disease was induced by administering DSS to mice at a concentration of 2.5% via drinking water. Mice were divided into a test group administered Compound 1a, a positive control group administered ozanimod or MTX (methotrexate), a vehicle group, and a normal control group, and each group had n=10. Compound 1, a compound of the present invention, was orally administered at doses of 5 and 10 mg/kg once a day for 7 days to the inflammatory bowel disease-induced model, and ozanimod as a positive control was administered orally at a dose of 5 mg/kg once a day, and MTX (methotrexate) as a positive control was administered intraperitoneally at a dose of 3 mg/kg three times a week.
DAI represents the total score of weight loss relative to initial weight, stool consistency, and degree of intestinal bleeding of the mouse. The criteria for calculation of DAI are shown in Table 10 below, and DAI was evaluated on days 0, 1, 2, 3, 4, 5, 6, 7, and 8.

[13] = system: adenine-induced chronic kidney disease model; test: Adenine-induced chronic kidney disease model; assay type: in vivo; conditions: adenine-induced CKD mice, 10 mg/kg/day orally, 3 weeks
Experimental: The antifibrotic effect of Compound 1a was evaluated using an adenine-induced chronic kidney disease model. 0.5% adenine (in 0.5% CMC) was orally administered to mice for 4 weeks to induce chronic kidney disease, and Compound 1a at 10, 30, and 90 mg/kg/day and the positive control substance telmisartan 10 mg/kg/day were administered orally to the mice for 3 weeks, followed by measurement of serum creatinine, serum BUN, and kidney hydroxyproline, and histopathology. In addition, the tubular-interstitial index value was determined based on the above measurement results.

[14] = system: unilateral ureteral obstruction (UUO) model; test: Unilateral ureteral obstruction (UUO) renal fibrosis model; assay type: in vivo; conditions: UUO mice, 30 mg/kg/day orally, 2 weeks
Experimental: The antifibrotic effect of Compound 1a in renal disease was evaluated using the unilateral ureteral obstruction (UUO) model, which is a renal fibrotic disease model. Kidney fibrosis was induced by unilateral ureteral obstruction of mice, and then Compound 1a at 10, 30, and 90 mg/kg/day and the positive control substance telmisartan at 30 mg/kg/day were orally administered to the mice once a day for 2 weeks.

Chain of hERG potassium ion channel (Q12809 whole entry): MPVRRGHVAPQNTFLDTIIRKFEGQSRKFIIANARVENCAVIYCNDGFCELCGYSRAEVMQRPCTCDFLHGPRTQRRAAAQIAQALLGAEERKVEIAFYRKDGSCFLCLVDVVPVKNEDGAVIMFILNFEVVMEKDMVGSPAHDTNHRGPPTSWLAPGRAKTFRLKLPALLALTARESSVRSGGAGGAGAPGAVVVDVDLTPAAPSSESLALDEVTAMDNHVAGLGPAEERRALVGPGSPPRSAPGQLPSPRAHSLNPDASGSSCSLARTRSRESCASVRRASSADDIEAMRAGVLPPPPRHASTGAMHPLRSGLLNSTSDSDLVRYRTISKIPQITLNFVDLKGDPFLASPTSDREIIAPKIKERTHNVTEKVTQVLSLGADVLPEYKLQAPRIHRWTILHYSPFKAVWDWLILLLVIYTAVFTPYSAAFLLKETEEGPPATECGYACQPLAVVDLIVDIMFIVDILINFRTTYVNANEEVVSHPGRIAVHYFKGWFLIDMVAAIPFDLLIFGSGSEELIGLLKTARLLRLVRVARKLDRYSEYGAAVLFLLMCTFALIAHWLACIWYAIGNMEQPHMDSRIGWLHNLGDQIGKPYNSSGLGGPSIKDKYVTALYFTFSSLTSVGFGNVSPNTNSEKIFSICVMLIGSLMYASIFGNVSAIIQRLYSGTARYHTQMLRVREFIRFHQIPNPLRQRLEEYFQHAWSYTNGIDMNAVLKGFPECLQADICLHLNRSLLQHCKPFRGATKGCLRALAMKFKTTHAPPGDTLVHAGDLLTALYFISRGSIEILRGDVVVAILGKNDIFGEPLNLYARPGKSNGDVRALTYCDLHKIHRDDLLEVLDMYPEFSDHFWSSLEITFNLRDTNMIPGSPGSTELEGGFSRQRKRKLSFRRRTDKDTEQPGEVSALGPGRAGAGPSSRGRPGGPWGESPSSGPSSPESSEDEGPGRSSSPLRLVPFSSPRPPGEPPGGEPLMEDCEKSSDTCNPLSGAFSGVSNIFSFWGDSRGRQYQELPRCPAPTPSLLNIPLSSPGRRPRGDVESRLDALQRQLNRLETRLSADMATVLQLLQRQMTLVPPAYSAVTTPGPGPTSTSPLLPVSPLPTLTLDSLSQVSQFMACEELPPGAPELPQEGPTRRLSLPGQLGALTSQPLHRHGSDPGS

With CCCCCCCCCCn1cc(CCC(N)(CO)CO)nn1.Cl [Comparative Example 1, reference compound] the Purity % ([1]; Saline (0.9% NaCl)/40° C., Initial) was 99.43%, the Purity % ([1]; pH 6.8 phosphate buffer/40° C., 1-week) was 98.04% and the Purity % ([1]; pH 6.8 phosphate buffer/40° C., Initial) was 98.93%. The Purity % ([2]; Saline (0.9% NaCl)/40° C., 1-week, listed as Hydrochloride salt of Compound 1) was 98.00%, the Purity % ([2]; Saline (0.9% NaCl)/40° C., 1-week, listed as hydrochloride salt of Compound 1) was no more than 98% and the Purity % ([2]; pH 6.8 phosphate buffer/40° C., 2-week, listed as Hydrochloride salt of Compound 1) was 97.87%. The Purity % ([2]; pH 6.8 phosphate buffer/40° C., 2-week, listed as hydrochloride salt of Compound 1) was “less than 98%”, the Purity % ([3]; Photostability 1.2 million lux hours exposed) was 98.75% and the Purity % ([3]; Photostability 1.2 million lux hours unexposed) was 99.35%. The Purity % ([4]; 30% H2O2 60° C. for 20 hours) was 91.23%, the change in appearance [5] was “turned into a liquid phase” and the Purity % ([6]; 1-week) was 99.00%. For the same compound, the “XRPD (physical stability)” value ([6]; 1-week, listed as Hydrochloride salt of Compound 1) was “Turned into liquid”, the “XRPD (physical stability)” value ([6]; 1-week, listed as hydrochloride salt of Compound 1) was “turned into a liquid phase” and the Purity % ([6]; 2-week) was 99.22%. The Purity % ([6]; Initial) was 99.34%, the “XRPD (physical stability)” value ([6]; Initial) was “Crystalline” and the “appearance in aqueous media” value [7] was “undissolved suspension form in some samples”. For the same compound, the “degree of corrosion of the sample” value [8] was “corrosion occurred”, the “behaviour in natural conditions” value ([9]; natural conditions) was “exhibited deliquescence” and the “DVS remark (adsorption at 90% RH)” value [9] was 49.5%. The “DVS remark (adsorption at 90% RH)” value ([9]; listed as hydrochloride salt of Compound 1) was 49.5%.

For CCCCCCCCCCn1cc(CCC(N)(CO)CO)nn1 [Compound 1, 2-Amino-2-(2-(1-decyl-1H-1,2,3-triazol-4-yl)ethyl) propane-1,3-diol], the decomposition rate ([4]; oxidative stress conditions, after 20 hours) was no less than 8%, the “compensated suppression rate (%) of hERG channel currents” value (shortened to “compensated suppression rate (%)”) ([10]; 1 μM) was 9.94±1.96% and the “compensated suppression rate (%)” value ([10]; 3 μM) was 13.98±4.48%. For the same compound, the “compensated suppression rate (%)” value ([10]; 10 μM) was 35.03±12.09%, the “compensated suppression rate (%)” value ([10]; 30 μM) was 82.62±7.31% and the pKa [11] was 8.12.

With CCCCCCCCCCn1cc(CCC(N)(CO)CO)nn1 [Compound 1b, 2-amino-2-(2-(1-decyl-1H-1,2,3-triazol-4-yl)ethyl) propane-1,3-diol] the “hygroscopicity (DVS evaluation, in words)” value ([9]; 90% RH, listed as Example 2) was “low hygroscopicity” and the “DVS remark (adsorption at 90% RH)” value ([9]; listed as Example 2) was 4.563%.

For CN(Cc1cnc2nc(N)nc(N)c2n1)c1ccc(C(=O)N[C@@H](CCC(=O)O)C(=O)O)cc1 [MTX, methotrexate, reference compound], the “disease activity index (DAI) compared to negative control group (vehicle)” value ([12]; 3 mg/kg intraperitoneally three times a week) was “statistically significantly decreased”.

With CCCCCCCCCCn1cc(CCC(N)(CO)CO)nn1.O=C(O)CCC(=O)O [compound 2] the “DVS remark (adsorption at 90% RH)” value [9] was 19.42%.

With CC(=O)O.CCCCCCCCCCn1cc(CCC(N)(CO)CO)nn1 [compound 3] the “DVS remark (adsorption at 90% RH)” value [9] was 34.33%.

In the case of CC(=O)O.CCCCCCCCCCn1cc(CCC(N)(CO)CO)nn1 [compound 4], the “DVS remark (adsorption at 90% RH)” value [9] is reported as 33.67%.

In the case of CCCCCCCCCCn1cc(CCC(N)(CO)CO)nn1.O=C(O)CCCCC(=O)O [compound 5], the “DVS remark (adsorption at 90% RH)” value [9] is reported as 22.46%.

In the case of CCCCCCCCCCn1cc(CCC(N)(CO)CO)nn1.O=C(O)CC(O)(CC(=O)O)C(=O)O [compound 6], the “DVS remark (adsorption at 90% RH)” value [9] is reported as 22.80%.

In the case of CC(C)Oc1ccc(-c2nc(-c3cccc4c3CC[C@@H]4NCCO)no2)cc1C#N [ozanimod, reference compound], the “disease activity index (DAI) compared to negative control group (vehicle)” value ([12]; 5 mg/kg orally once a day) is reported as “statistically significantly decreased”.

In the case of CCCc1nc2c(C)cc(-c3nc4ccccc4n3C)cc2n1Cc1ccc(-c2ccccc2C(=O)O)cc1 [telmisartan, reference compound], the “kidney fibrosis (tubular-interstitial index)” value [13] is reported as “statistically significantly decreased” and the Kidney hydroxyproline [14] is reported as “statistically significantly reduced”.
